Experimental data: ChEMBL document CHEMBL4715932, “Positional Isomers of Biphenyl Antimicrobial Peptidomimetic Amphiphiles” (ACS Med Chem Lett, 2021)

Assays:
Acinetobacter baumannii = assay: Antimicrobial activity against Acinetobacter baumannii ATCC 19606 assessed as growth inhibition incubated for 18 hrs; assay type: functional
Enterococcus faecalis [1] = assay: Antibacterial activity against Enterococcus faecalis ATCC 29212 assessed as inhibition of growth visually by CLSI method; assay type: functional
[2] = Hemolytic activity in sheep RBC assessed as hemolysis at 5 microg/ml incubated for 2 hrs by CO-ADD method; assay type: ADME, cell-based, Ovis aries, Erythrocyte; settings: red blood cells (erythrocytes), at 5 µg/mL, read-out: Activity
Escherichia coli [3] = assay: Antimicrobial activity against Escherichia coli ATCC 25922 assessed as growth inhibition incubated for 18 hrs; assay type: functional
Clostridioides difficile [4] = assay: Antibacterial activity against Clostridioides difficile ATCC 700057 assessed as inhibition of growth visually preincubated for 2 to 4 hrs measured after 48 hrs by CLSI method; assay type: functional; settings: time hrs <=52
[5] = Hemolytic activity in human RBC assessed as hemolysis incubated for 1 hr by CO-ADD method; assay type: ADME, cell-based, Erythrocyte; settings: red blood cells (erythrocytes)
Staphylococcus aureus [6] = assay: Antibacterial activity against vancomycin intermediate susceptibility Staphylococcus aureus Mu50 assessed as inhibition of growth visually by CLSI method; assay type: functional
Candida albicans = assay: Antifungal activity against Candida albicans ATCC 90028 assessed as growth inhibition incubated for 36 hrs; assay type: functional; settings: 28A ATCC 90028
[7] = Hemolytic activity in sheep RBC assessed as hemolysis at 50 microg/ml incubated for 2 hrs; assay type: ADME, cell-based, Ovis aries, Erythrocyte; settings: red blood cells (erythrocytes), at 50 µg/mL, read-out: Activity
[8] = Cytotoxicity against human HEK-293 cells incubated for 23 hrs by CO-ADD method; assay type: cell-based, HEK293
Klebsiella pneumoniae = assay: Antimicrobial activity against multidrug-resistant Klebsiella pneumoniae ATCC 700603 assessed as growth inhibition incubated for 18 hrs; assay type: functional
Staphylococcus aureus [9] = assay: Antibacterial activity against methicillin-resistant Staphylococcus aureus NCTC 10442 assessed as inhibition of growth visually by CLSI method; assay type: functional
Enterococcus faecalis [10] = assay: Antibacterial activity against vancomycin-resistant Enterococcus faecalis ATCC 51299 assessed as inhibition of growth visually by CLSI method; assay type: functional
Streptococcus pneumoniae = assay: Antibacterial activity against Streptococcus pneumoniae ATCC 49619 assessed as inhibition of growth visually by CLSI method; assay type: functional
Escherichia coli [11] = assay: Antibacterial activity against Escherichia coli ATCC 10418 assessed as inhibition of growth visually by CLSI method; assay type: functional
Pseudomonas aeruginosa = assay: Antimicrobial activity against Pseudomonas aeruginosa ATCC 27853 assessed as growth inhibition incubated for 18 hrs; assay type: functional
Staphylococcus aureus [12] = assay: Antibacterial activity against Staphylococcus aureus ATCC 29213 assessed as inhibition of growth visually by CLSI method; assay type: functional
[13] = Hemolytic activity in human RBC assessed as maximal hemolysis at <= 32 ug/ml incubated for 1 hr by CO-ADD method; assay type: cell-based, Erythrocyte; settings: red blood cells (erythrocytes), dose <=32 µg/ml, read-out: Activity
Staphylococcus aureus [14] = assay: Antimicrobial activity against methicillin resistant Staphylococcus aureus ATCC 43300 assessed as growth inhibition incubated for 18 hrs; assay type: functional
Cryptococcus neoformans = assay: Antifungal activity against Cryptococcus neoformans H99 ATCC 208821 assessed as growth inhibition incubated for 36 hrs; assay type: functional; settings: var. grubii H99 ATCC 208821
Clostridioides difficile [15] = assay: Antibacterial activity against Clostridioides difficile NSW 132 (RT027) assessed as inhibition of growth visually preincubated for 2 to 4 hrs measured after 48 hrs by CLSI method; assay type: functional; settings: time hrs <=52
[16] = Cytotoxicity against human HEK-293 cells assessed as maximal inhibition at <= 32 ug/ml incubated for 23 hrs by CO-ADD method; assay type: cell-based, HEK293; settings: dose <=32 µg/ml, read-out: Imax

`CC(C)CCOc1ccc(-c2ccc(OCc3cn(C[C@@H](CCCCN)NC(=O)[C@@H](CCCNC(=N)N)n4cc(CC5CCCCC5)nn4)nn3)cc2)cc1.Cl.Cl` gave an MIC80 (Acinetobacter baumannii) of 32 µg/mL, an MIC (Enterococcus faecalis [1]) of 8 µg/mL and a hemolysis at 2 h, 5 microg/ml [2] of 1.4%. For the same compound, the MIC80 (Escherichia coli [3]) was 8 µg/mL, the MIC (Clostridioides difficile [4]) was 16 µg/mL and the HC50 at 1 h [5] was 9.8 µg/mL. For the same compound, the MIC (Staphylococcus aureus [6]) was 4 µg/mL, the MIC80 (Candida albicans) was 1 µg/mL and the hemolysis at 2 h, 50 microg/ml [7] was 57.2%. For the same compound, the CC50 at 23 h [8] was over 32 µg/mL, the MIC80 (Klebsiella pneumoniae) was 32 µg/mL and the MIC (Staphylococcus aureus [9]) was 4 µg/mL. It also gave an MIC (Enterococcus faecalis [10]) of 16 µg/mL, an MIC (Streptococcus pneumoniae) of 2 µg/mL and an MIC (Escherichia coli [11]) of 32 µg/mL. The MIC80 (Pseudomonas aeruginosa) was 8 µg/mL, the MIC (Staphylococcus aureus [12]) was 4 µg/mL and the hemolysis at 1 h [13] was 94%. It also gave an MIC80 (Staphylococcus aureus [14]) of at most 0.25 µg/mL, an MIC80 (Cryptococcus neoformans) of over 32 µg/mL and an MIC (Clostridioides difficile [15]) of 8 µg/mL. It also gave an Emax at 23 h [16] of 25%.

`CC(C)CCOc1ccc(-c2ccccc2OCc2cn(C[C@@H](CCCCN)NC(=O)[C@@H](CCCNC(=N)N)n3cc(CC4CCCCC4)nn3)nn2)cc1.Cl.Cl` gave an MIC80 (Acinetobacter baumannii) of 4 µg/mL, an MIC (Enterococcus faecalis [1]) of 4 µg/mL and a hemolysis at 2 h, 5 microg/ml [2] of 2.7%. It also gave an MIC80 (Escherichia coli [3]) of 4 µg/mL, an MIC (Clostridioides difficile [4]) of 16 µg/mL and an HC50 at 1 h [5] of over 32 µg/mL. For the same compound, the MIC (Staphylococcus aureus [6]) was 4 µg/mL, the MIC80 (Candida albicans) was over 32 µg/mL and the hemolysis at 2 h, 50 microg/ml [7] was 63%. It also gave a CC50 at 23 h [8] of over 32 µg/mL, an MIC80 (Klebsiella pneumoniae) of 32 µg/mL and an MIC (Staphylococcus aureus [9]) of 2 µg/mL. It also gave an MIC (Enterococcus faecalis [10]) of 8 µg/mL, an MIC (Streptococcus pneumoniae) of 1 µg/mL and an MIC (Escherichia coli [11]) of 4 µg/mL. It also gave an MIC80 (Pseudomonas aeruginosa) of 8 µg/mL, an MIC (Staphylococcus aureus [12]) of 4 µg/mL and a hemolysis at 1 h [13] of 41%. It also gave an MIC80 (Staphylococcus aureus [14]) of at most 0.25 µg/mL, an MIC80 (Cryptococcus neoformans) of over 32 µg/mL and an MIC (Clostridioides difficile [15]) of 16 µg/mL. For the same compound, the Emax at 23 h [16] was 13%.
